Source: publication doi:10.1101/2021.04.08.439011v1 (biorxiv, 2021)
Like-named read-outs stand apart in the source and are kept apart here.

Assays:
AAK1 = AAK1 (Homo sapiens, UniProt Q2M2I8); settings: 0.1 µM; binder
ABL1(E255K) = ABL1(E255K) (Homo sapiens, UniProt P00519, E255K); settings: phosphorylated; 0.1 µM; binder
ALK = ALK (Homo sapiens, UniProt Q9UM73); settings: 0.1 µM; binder
ARK5 = ARK5 (Homo sapiens, UniProt O60285); settings: 0.1 µM; binder
ASK1 = ASK1 (Homo sapiens, UniProt Q99683); settings: 0.1 µM; binder
Sequence of ASK1 (Q99683 whole entry): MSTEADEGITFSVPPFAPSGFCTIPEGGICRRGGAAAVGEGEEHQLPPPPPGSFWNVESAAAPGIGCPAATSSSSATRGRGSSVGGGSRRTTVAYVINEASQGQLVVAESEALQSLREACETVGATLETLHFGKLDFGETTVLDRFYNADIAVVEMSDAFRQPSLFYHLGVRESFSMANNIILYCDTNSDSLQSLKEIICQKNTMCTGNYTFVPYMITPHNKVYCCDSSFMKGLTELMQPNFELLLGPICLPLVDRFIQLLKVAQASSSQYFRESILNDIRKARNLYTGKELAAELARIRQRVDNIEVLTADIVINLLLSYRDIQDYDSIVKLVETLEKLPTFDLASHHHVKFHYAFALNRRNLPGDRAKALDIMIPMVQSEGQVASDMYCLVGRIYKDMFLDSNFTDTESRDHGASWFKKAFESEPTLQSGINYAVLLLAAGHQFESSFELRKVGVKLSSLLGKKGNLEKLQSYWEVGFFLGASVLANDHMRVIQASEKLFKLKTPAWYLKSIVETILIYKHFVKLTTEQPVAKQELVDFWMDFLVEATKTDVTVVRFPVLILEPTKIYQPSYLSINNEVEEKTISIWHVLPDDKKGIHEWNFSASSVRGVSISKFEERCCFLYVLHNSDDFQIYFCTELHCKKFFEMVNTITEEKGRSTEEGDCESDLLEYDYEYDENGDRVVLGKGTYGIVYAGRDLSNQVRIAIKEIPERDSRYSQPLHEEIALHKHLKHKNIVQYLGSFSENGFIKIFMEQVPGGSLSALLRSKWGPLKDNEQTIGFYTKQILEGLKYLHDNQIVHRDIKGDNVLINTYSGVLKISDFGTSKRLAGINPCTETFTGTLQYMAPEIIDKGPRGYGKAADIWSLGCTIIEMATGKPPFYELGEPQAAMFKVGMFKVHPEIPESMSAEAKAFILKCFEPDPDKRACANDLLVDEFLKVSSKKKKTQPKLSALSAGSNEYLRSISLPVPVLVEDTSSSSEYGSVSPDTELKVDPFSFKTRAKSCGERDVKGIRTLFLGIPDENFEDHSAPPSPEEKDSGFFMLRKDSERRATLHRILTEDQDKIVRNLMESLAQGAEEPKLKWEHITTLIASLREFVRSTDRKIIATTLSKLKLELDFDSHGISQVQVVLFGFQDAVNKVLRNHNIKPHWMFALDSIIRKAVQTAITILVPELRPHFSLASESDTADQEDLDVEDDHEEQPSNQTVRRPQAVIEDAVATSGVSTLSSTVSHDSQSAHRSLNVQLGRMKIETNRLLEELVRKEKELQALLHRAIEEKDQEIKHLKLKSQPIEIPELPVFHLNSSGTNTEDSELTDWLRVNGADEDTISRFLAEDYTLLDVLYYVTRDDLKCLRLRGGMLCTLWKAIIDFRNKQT

CAMK1 = CAMK1 (Homo sapiens, UniProt Q14012); settings: 0.1 µM; binder
CAMK2D = CAMK2D (Homo sapiens, UniProt Q13557); settings: 0.1 µM; binder
Sequence of CAMK2D (Q13557 whole entry): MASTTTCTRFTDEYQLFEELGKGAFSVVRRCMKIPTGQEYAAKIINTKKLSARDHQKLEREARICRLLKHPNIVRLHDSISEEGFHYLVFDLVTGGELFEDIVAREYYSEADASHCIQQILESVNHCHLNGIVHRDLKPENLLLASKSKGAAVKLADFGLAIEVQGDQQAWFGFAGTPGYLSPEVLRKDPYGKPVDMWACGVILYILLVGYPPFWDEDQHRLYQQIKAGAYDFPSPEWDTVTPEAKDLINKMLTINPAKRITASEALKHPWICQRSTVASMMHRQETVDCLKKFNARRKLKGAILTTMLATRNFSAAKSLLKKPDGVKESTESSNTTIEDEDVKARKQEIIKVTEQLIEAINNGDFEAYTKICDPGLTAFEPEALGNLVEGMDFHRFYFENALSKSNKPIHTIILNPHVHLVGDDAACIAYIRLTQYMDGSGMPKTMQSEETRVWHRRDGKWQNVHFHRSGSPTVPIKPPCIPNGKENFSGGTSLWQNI

CAMKK1 = CAMKK1 (Homo sapiens, UniProt Q8N5S9); settings: 0.1 µM; binder
Sequence of CAMKK1 (Q8N5S9 whole entry): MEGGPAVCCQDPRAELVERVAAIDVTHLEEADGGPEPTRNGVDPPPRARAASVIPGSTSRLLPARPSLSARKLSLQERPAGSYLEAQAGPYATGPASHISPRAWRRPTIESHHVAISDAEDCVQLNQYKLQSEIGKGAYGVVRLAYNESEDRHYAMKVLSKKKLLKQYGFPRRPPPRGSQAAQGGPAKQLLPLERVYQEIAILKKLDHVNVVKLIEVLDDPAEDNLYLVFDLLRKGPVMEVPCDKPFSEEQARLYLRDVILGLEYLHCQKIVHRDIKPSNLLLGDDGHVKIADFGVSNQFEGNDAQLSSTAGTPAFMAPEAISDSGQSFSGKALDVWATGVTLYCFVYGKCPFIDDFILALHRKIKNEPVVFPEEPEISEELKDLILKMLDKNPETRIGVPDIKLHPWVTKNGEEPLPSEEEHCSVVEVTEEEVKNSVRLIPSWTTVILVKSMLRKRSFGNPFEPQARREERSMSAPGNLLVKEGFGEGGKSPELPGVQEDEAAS

CDK19 = CDK19 (Homo sapiens, UniProt Q9BWU1); settings: 0.1 µM; binder
EGFR(L858R,T790M) = EGFR(L858R,T790M) (Homo sapiens, UniProt P00533, L858R/T790M); settings: 0.1 µM; binder
FLT3 = target: T1, FLT3 (Homo sapiens, UniProt P36888); settings: 0.1 µM, binder
T1 sequence (P36888 1-993): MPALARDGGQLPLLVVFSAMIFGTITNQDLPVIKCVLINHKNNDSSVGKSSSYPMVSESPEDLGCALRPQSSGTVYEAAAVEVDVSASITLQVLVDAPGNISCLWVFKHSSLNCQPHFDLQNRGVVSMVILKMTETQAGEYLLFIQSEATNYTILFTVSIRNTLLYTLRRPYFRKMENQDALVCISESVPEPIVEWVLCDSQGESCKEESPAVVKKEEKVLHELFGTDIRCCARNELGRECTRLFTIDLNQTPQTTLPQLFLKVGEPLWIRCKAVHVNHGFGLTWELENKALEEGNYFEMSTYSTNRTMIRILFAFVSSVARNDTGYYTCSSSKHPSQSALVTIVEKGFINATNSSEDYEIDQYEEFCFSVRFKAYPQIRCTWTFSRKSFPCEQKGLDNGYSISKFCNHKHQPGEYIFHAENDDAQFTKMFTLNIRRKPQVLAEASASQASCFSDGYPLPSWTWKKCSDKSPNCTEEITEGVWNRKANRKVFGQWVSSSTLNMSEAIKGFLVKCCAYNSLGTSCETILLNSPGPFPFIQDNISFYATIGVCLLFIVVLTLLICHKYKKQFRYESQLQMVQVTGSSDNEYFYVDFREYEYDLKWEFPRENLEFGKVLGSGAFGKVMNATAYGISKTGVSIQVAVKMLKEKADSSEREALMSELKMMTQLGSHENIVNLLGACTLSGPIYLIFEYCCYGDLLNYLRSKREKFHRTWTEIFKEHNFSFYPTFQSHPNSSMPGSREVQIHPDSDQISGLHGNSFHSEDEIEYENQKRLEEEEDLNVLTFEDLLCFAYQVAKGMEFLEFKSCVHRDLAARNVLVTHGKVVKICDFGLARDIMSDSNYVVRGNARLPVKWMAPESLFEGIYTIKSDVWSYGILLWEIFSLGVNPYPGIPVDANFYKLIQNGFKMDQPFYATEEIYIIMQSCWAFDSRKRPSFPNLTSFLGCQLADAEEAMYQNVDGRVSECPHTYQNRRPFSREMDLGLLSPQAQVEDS

HIPK2 = HIPK2 (Homo sapiens, UniProt Q9H2X6); settings: 0.1 µM; binder
LATS1 = LATS1 (Homo sapiens, UniProt O95835); settings: 0.1 µM; binder
MEK3 = MEK3 (Homo sapiens, UniProt P46734); settings: 0.1 µM; binder
MEK4 = MEK4 (Homo sapiens, UniProt P45985); settings: 0.1 µM; binder
NEK11 = NEK11 (Homo sapiens, UniProt Q8NG66); settings: 0.1 µM; binder
Sequence of NEK11 (Q8NG66 whole entry): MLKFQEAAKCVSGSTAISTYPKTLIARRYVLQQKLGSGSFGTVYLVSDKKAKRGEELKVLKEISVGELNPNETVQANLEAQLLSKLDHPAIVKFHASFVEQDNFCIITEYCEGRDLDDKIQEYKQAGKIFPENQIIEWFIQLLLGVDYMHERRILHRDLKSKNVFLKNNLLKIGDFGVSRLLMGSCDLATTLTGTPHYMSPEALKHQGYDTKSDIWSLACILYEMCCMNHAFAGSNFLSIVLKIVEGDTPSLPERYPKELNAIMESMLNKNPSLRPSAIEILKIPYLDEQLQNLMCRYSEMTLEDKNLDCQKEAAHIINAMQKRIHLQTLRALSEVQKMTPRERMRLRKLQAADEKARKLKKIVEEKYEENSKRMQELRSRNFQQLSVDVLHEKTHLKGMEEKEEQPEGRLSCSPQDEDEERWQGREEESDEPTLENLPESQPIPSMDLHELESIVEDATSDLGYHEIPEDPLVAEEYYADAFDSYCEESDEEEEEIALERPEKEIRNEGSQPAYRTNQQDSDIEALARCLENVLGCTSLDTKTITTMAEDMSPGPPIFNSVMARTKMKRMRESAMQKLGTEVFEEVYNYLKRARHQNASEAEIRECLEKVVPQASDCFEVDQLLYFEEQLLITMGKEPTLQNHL

PIK4CB = PIK4CB (Homo sapiens, UniProt Q9UBF8); settings: 0.1 µM; binder
RIPK1 = RIPK1 (Homo sapiens, UniProt Q13546); settings: 0.1 µM; binder
RIPK4 = RIPK4 (Homo sapiens, UniProt P57078); settings: 0.1 µM; binder
STK35 = STK35 (Homo sapiens, UniProt Q8TDR2); settings: 0.1 µM; binder
TNK1 = TNK1 (Homo sapiens, UniProt Q13470); settings: 0.1 µM; binder
Sequence of TNK1 (Q13470 whole entry): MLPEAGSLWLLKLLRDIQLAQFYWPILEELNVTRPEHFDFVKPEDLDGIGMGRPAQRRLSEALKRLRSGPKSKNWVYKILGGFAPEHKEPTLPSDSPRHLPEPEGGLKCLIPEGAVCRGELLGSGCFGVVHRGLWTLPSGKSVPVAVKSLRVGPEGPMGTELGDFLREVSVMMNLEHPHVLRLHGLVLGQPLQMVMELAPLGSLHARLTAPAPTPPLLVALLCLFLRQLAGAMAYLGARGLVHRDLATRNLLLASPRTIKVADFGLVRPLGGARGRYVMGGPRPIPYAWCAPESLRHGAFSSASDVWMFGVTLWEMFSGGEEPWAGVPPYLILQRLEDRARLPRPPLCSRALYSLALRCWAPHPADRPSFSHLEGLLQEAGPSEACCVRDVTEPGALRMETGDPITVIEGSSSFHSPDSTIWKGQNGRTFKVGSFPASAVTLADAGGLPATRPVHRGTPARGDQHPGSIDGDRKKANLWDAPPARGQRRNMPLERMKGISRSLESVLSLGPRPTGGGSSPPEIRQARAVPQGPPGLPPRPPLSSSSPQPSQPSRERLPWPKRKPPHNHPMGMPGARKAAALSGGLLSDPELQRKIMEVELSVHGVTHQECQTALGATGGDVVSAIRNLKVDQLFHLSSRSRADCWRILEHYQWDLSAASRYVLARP

ULK2 = ULK2 (Homo sapiens, UniProt Q8IYT8); settings: 0.1 µM; binder

Sequence of ABL1(E255K) (P00519 whole entry E255K): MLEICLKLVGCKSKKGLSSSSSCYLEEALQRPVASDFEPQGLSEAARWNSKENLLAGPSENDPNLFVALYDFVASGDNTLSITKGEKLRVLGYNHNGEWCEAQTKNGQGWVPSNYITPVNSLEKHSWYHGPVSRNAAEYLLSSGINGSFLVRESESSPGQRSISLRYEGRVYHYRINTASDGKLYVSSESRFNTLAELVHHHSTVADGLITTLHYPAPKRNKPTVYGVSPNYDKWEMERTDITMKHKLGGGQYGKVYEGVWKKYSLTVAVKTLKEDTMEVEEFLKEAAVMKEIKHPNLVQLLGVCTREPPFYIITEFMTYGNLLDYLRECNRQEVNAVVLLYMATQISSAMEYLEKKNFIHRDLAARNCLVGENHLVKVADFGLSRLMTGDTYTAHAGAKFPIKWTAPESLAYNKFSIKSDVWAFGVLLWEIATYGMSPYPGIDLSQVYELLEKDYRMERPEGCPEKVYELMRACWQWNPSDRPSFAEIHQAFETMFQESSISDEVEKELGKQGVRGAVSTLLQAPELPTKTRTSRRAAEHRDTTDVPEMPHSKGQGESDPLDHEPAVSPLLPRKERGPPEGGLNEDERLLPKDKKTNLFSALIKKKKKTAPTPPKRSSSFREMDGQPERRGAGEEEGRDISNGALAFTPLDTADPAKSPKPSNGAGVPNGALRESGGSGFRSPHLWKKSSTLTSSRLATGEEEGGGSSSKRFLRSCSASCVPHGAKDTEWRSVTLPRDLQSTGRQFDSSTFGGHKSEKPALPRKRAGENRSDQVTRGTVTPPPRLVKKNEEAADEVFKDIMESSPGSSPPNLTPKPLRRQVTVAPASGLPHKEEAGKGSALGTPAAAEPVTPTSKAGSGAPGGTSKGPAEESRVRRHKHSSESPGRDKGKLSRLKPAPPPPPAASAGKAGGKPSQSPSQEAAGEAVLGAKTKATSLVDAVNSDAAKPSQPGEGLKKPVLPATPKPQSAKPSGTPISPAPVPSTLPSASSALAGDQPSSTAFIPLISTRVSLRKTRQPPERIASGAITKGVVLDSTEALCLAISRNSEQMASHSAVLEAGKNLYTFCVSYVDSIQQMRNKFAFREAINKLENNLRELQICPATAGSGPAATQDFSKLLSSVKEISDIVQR

## CNc1ncc2cc(-c3ccc(-c4cccc(C)n4)cc3Cl)c(=O)n(C[C@H]3OC[C@H](N)CO3)c2n1 [compound 6, G-5555]
AAK1
  Percent Control: 100%
ABL1(E255K)
  Percent Control: 100%
ALK
  Percent Control: 89%
ARK5
  Percent Control: 87%
ASK1
  Percent Control: 99%
CAMK1
  Percent Control: 100%
CAMK2D
  Percent Control: 100%
CAMKK1
  Percent Control: 100%
CDK19
  Percent Control: 87%
EGFR(L858R,T790M)
  Percent Control: 100%
FLT3
  Percent Control: 100%
FLT3; autoinhibited
  Percent Control: 94%
HIPK2
  Percent Control: 100%
LATS1
  Percent Control: 57%
MEK3
  Percent Control: 75%
MEK4
  Percent Control: 49%
NEK11
  Percent Control: 100%
PIK4CB
  Percent Control: 97%
RIPK1
  Percent Control: 100%
RIPK4
  Percent Control: 97%
STK35
  Percent Control: 100%
TNK1
  Percent Control: 100%
ULK2
  Percent Control: 100%
